According to US10745454B2, “Method of synthesizing antagonist peptides for cell growth” (priority 2018, dated 2020):

Key:
bFGFR-1 (receptor) = molecular target: T1, bFGFR-1 (receptor) (Homo sapiens, UniProt P11362); assay: Competitive binding assay with bFGFR-1 in HUVECs (immunofluorescence); conditions: peptide 1000-2000 ng/ml overnight
T1 construct: with bFGFR-1 (receptor) in Human Umbilical Vein Endothelial Cells (HUVECs); endogenous in cells; host or cells: HUVEC (Human Umbilical Vein Endothelial Cells)
Experimental: Binding Assay—To assess competitive binding assay of bFGF antagonist, Human Umbilical Vein Endothelial Cells(HUVECs) are cultured in 96-well plates (5000 cells/well) with DMEM and 5% fetal bovine serum (FBS) incubated at 37° C. for overnight. After 24 h, the media in the 96-well plates is changed with DMEM without FBS and the cells are treated (except the control 96-well plates) with 1000-2000 ng/ml the peptides at 37° C. for overnight. The cells are fixed by 4% paraformaldehyde at room temperature for 5-10 min. After 5-10 minutes the cells are rinsed with phosphate buffer saline (PBS), permeabilized with PBS+0.3% Triton X-100. The […] with a mixture comprising 10% normal goat serum, bovine serum albumin (BSA) 1% PBST for 20 minutes in the room temperature. After 20 minutes the cells are subjected to anti-FGFR-1 (5000 ng/ml, Ab10646) with FITC-secondary (Ab6717) antibody and stained with propidium iodide (Sigma Aldrich, USA, P4170) (1 μg/ml) for nuclear staining. The cell-binding is analyzed by NIH Image J software.

[1] = tested on: ovarian cancer cell line SKOV3; assay: bFGF-induced SKOV3 proliferation assay (MTT); format: cell-based, human; conditions: for bFGF-induced proliferation of SKOV3: hr-bFGF, peptide 25-1000 ng/ml, 5-6 days
Experimental: Cell Proliferation Assay—To analyze the ability of basic fibroblast growth factor (bFGF) antagonist peptide to inhibit the bFGF-induced cell proliferation, the ovarian cell line SKOV3 is utilized. The SKOV3 cell line is found to be dependent on bFGF for cellular proliferation. For cell culture, SKOV3 cells are maintained in DMEM supplemented with 5% FBS, 1% streptomycin, penicillin, […] glutamine and is mycoplasma free.
For estimating the anti-proliferative activity of bFGF, SKOV3 is plated at 1×10^4 cell per well in a 24 well dish in 1 ml DMEM, the cells are maintained in DMEM and treated with human recombinant bFGF (hr-bFGF) (0-100 ng/ml) alone and in combination with different concentration of the antagonistic peptide (25-1000 ng/ml) every other day for total 5-6 days. The experiment is terminated when cells are in confluence. The MTT assay is performed. The absorbance is determined at 540 nm. The results are expressed as the mean of triplicate experiments (+SD). One-way analysis of variance is used to determine significance.

HUVECs = assay: Matrigel tube formation assay, bFGF antagonist; format: cell-based, human; conditions: peptide 2000 ng/ml
4T1 tumor = assay: Histopathological staining of angiogenesis markers CD31 and CD34 in 4T1 tumors of treated mice; format: in vivo, BALB/c mice; conditions: 4T1 tumor tissue; i.p. daily, two weeks
Experimental: In vivo Tumor Growth Regression-Animal studies are conducted according to relevant national and international guidelines of the Weatherall report and Institutional Animal Care and Use Committee (IACUC) of Tehran University of Medical Sciences. The tumors induced in the female BALB/c mice (5 weeks old) are purchased from the Laboratory Animal Center of Iran Pasteur Institute and maintained under 12 h dark and light cycle. The 4T1 tumor model mouse are sterilized and established from the breast cancer bearing BALB/c mice by a standard protocol. The 4T1 tumor model mouse are prepared by cutting the tumor into pieces of <0.3 cm3. […] The tumor volume is measured every two days by a digital Vernier caliper (Mitutoyo, japan), using the following formula: v=a2×b×0.52 (where “a” is the shortest and “b” is the longest diameter).
Histopathological analyses—The excised tumor tissues are fixed in formalin (4%), embedded in paraffin, sectioned and stained against CD31, CD34, Ki-67, P53, Bcl-2 and TUNEL. […] To count microvessels of the murine breast cancer tissue, the 5 randomly selected vascularized areas are counted under scale bar 100 and 20 μm. The microvascular density (MVD) of the tumor is measured and evaluated by the standard protocol. The microvessels are manually counted on the images at scale bar of 20 μm. […]

[2] = tested on: PI3K/AKT and MAPK/ERK1/2 pathways; assay: Quantitative Western blot of PI3K/AKT and MAPK/ERK1/2 activation in 4T1 tumor extracts; format: in vivo, murine
Experimental: In vivo Tumor Growth Regression-Animal studies are conducted according to relevant national and international guidelines of the Weatherall report and Institutional Animal Care and Use Committee (IACUC) of Tehran University of Medical Sciences. The tumors induced in the female BALB/c mice (5 weeks old) are purchased from the Laboratory Animal Center of Iran Pasteur Institute and maintained under 12 h dark and light cycle. The 4T1 tumor model mouse are sterilized and established from the breast cancer bearing BALB/c mice by a standard protocol. The 4T1 tumor model mouse are prepared by cutting the tumor into pieces of <0.3 cm3. The tumor pieces are subcutaneously transplanted into the left flank of the mouse under ketamine (100 mg/kg, i.p.) and xylazine (10 mg/kg, i.p.) anesthesia. The mouse carrying tumors with a tumor size reaching to 400 mm3 are randomized and divided into groups. Each group of tumor induced mice comprises 6 mouse. The first group is treated with vascular endothelial growth factor (VEGF). The second group is treated with phosphate buffer saline. The first group or treated groups receives daily 1, 2.5 and 10 mg/kg i.p. of VEGF-antagonistic peptides compared to PBS control group for two weeks. The tumor volume is measured every two days by a digital Vernier caliper (Mitutoyo, japan), using the following formula: v=a2×b×0.52 (where “a” is the shortest and “b” is the longest diameter).
The tumor tissues from control and peptide-treated (cultured cells or mice) are lysed with RIPA lysis buffer. […] Protein concentrations are assessed by Bradford assay. […]
The premium nitrocellulose western blotting membranes are washed with TBST and incubated with horseradish peroxidase-conjugated goat anti-mouse IgG secondary antibody. […] The quantitative analysis of protein expression to the reference protein, repeated at least three times, is performed using ImageJ. […]

endothelial cell = conditions: Alzheimer's disease context; cited from earlier work
adipose tissue = conditions: mice; cited from earlier work
[3] = listed as bFGF antagonistic peptide
[4] = 4T1 mammary carcinoma tumor tissues

T1 sequence (P11362 22-822): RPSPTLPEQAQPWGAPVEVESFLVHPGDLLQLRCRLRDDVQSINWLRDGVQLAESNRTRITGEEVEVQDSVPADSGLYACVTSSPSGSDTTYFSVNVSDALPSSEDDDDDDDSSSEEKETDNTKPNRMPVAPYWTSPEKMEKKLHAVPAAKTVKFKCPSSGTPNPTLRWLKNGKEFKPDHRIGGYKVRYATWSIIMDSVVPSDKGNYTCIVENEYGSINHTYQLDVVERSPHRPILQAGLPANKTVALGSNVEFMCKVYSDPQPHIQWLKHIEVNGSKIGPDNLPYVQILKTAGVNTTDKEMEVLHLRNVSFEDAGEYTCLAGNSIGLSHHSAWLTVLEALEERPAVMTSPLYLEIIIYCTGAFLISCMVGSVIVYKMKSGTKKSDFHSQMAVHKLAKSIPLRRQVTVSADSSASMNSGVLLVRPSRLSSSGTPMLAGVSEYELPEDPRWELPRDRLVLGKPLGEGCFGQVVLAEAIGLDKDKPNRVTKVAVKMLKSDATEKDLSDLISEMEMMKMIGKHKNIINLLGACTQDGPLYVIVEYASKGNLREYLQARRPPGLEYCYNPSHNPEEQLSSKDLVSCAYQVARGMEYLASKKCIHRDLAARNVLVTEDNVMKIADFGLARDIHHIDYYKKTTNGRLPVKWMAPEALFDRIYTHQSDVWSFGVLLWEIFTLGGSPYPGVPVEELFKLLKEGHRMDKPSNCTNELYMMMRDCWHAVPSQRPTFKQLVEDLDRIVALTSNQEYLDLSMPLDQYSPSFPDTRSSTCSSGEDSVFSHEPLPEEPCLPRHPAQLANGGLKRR

2HN-Leu119-Lys120-Arg121-Thr122-Gly123-Gln124-Tyr125-Lys126-Leu127-COOH (H-LKRTGQYKL-OH; listed as Homo sapiens) [Seq. ID No. 5, antagonist of bFGF, residues 119-127 of bFGF]
binding to bFGFR-1 (bFGFR-1 (receptor)): recognizes bFGFR
binding to bFGFR-1 (bFGFR-1 (receptor); [3]): recognizes and binds
bFGF-induced proliferation of SKOV3 [1]: suppressing bFGF-induced proliferation
bFGF-induced proliferation of SKOV3 ([1]; listed as bFGF antagonist peptide): inhibits the bFGF-induced proliferation of ovarian cancer cell line SKOV3 in a dose-dependent manner
bFGF-induced proliferation of SKOV3 [1, 3]: inhibit the proliferation
SKOV3 cell proliferation at 400 ng/ml peptide ([1]; peptide 400 ng/ml): reduced
anti-angiogenic activity, Matrigel assay (HUVECs): inhibits the angiogenesis process
anti-angiogenic effect, staining of angiogenesis marker CD31 (4T1 tumor): inhibits the angiogenesis
anti-angiogenic effect, staining of angiogenesis marker CD34 (4T1 tumor): inhibits the angiogenesis
AKT phosphorylation [2, 4]: able to block
ERK1/2 phosphorylation [2, 4]: able to block
difference in p-AKT or p-ERK inhibition levels between dosages ([2]; dosages 1 and 10 mg/kg): no significant difference

CN(C)c1ccc(/C=C2\C(=O)Nc3ccccc32)cc1 [SU 4312]
vessel formation (endothelial cell): could be blocked

CO[C@@H]1[C@H](OC(=O)NC(=O)CCl)CC[C@]2(CO2)[C@H]1[C@@]1(C)O[C@@H]1CC=C(C)C [TNP-470]
diet-induced and genetic obesity (adipose tissue): able to prevent
vascularity in the adipose tissue (adipose tissue): reduced
